Test systems include SF-295; HT-29; NCI-H226; HCT-116; SK-OV-3; OVCAR-3; KM12; CCRF-CEM; UACC-257; UO-31; HCC 2998; SNB-75; U-251; RPMI-8226; SF-539; SNB-19; 786-0; M14; RXF 393; NCI-H522.
Common to all, as to assay: NCI-60 cell line screen, 48 h

The structures appear in SMILES notation.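 Assay format: 96-well plates, 48-hour exposure. GI50: concentration for 50% inhibition of growth.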 Active and inactive are the calls of the source. No stated cut-off is given here; in the data, active = GI50 up to about 1.1 µM and inactive = higher. Bounds are passed on as bounds.

In the case of `c1ccc2nc3c(nc2c1)sc1nc2ccccc2n13`, the GI50 in the assay with SF-295 was 45 µM (inactive); in the assay with HT-29, > 100 µM (inactive); with NCI-H226 it was > 100 µM (inactive); in the assay on HCT-116 it was > 100 µM (inactive); in the assay with SK-OV-3 it was > 100 µM (inactive); in the assay with OVCAR-3 it was > 100 µM (inactive). Further, the GI50 in the assay with KM12, in the assay with CCRF-CEM, in the assay on UACC-257, with UO-31, with HCC 2998 and in the assay on SNB-75 was > 100 µM (inactive) in each case. Also, the GI50 with U-251 was > 100 µM (inactive); in the assay on RPMI-8226, > 100 µM (inactive); in the assay on SF-539 it was > 100 µM (inactive); in the assay on SNB-19, 93.8 µM (inactive); with 786-0, 46.1 µM (inactive); in the assay on M14 it was > 100 µM (inactive). Also, the GI50 in the assay with RXF 393 is 28.4 µM (inactive).

In the case of `C=CCn1c(=S)sc2c(O)ncnc21`, the GI50 in the assay on NCI-H522, in the assay on SF-295, in the assay with HT-29, with HCT-116, in the assay on SK-OV-3 and in the assay on OVCAR-3 was > 100 µM (inactive) each time. Further, the GI50 is > 100 µM (inactive) in the assay with KM12; > 100 µM (inactive) in the assay on CCRF-CEM; > 100 µM (inactive) in the assay on UACC-257; > 100 µM (inactive) in the assay with UO-31; > 100 µM (inactive) in the assay on HCC 2998; 61.2 µM (inactive) in the assay with SNB-75. Also, the GI50 in the assay on U-251 was 48.8 µM (inactive); in the assay with SF-539 it was > 100 µM (inactive); in the assay on SNB-19, > 100 µM (inactive); in the assay on 786-0, > 100 µM (inactive); in the assay on M14 it was > 100 µM (inactive).

Turning to `Cc1ccc(N2C(=O)/C(=C3\Sc4c(nc(C)[nH]c4=O)N3c3ccccc3)SC2=S)cc1`, the GI50 in the assay on NCI-H522 is 48.4 µM (inactive); with SF-295, 18 µM (inactive); with HT-29, 68.9 µM (inactive); in the assay on NCI-H226, 30.5 µM (inactive); in the assay on HCT-116, 60.3 µM (inactive); in the assay with SK-OV-3 it was 15.8 µM (inactive). In addition, the GI50 is 18.4 µM (inactive) in the assay with OVCAR-3; 44.6 µM (inactive) with CCRF-CEM; > 100 µM (inactive) in the assay on UACC-257; 29.2 µM (inactive) in the assay on UO-31; 16.1 µM (inactive) in the assay on SNB-75; 17.3 µM (inactive) in the assay with U-251. In addition, the GI50 is > 100 µM (inactive) in the assay on RPMI-8226; 10 µM (inactive) in the assay on SF-539; 37.3 µM (inactive) in the assay with SNB-19; 10.4 µM (inactive) in the assay on 786-0; 19.7 µM (inactive) in the assay on M14.

In the case of `CCOC(=O)/C(=C/c1cccc(OC)c1)N(CC)CC`, the GI50 in the assay with NCI-H522, in the assay on SF-295, in the assay with HT-29, in the assay on NCI-H226, in the assay on HCT-116 and with SK-OV-3 was > 100 µM (inactive) throughout. Besides, the GI50 in the assay with OVCAR-3, with KM12, in the assay on CCRF-CEM, in the assay on UACC-257, in the assay on UO-31 and with U-251 was > 100 µM (inactive) in each case. The GI50 with RPMI-8226, in the assay with SF-539, in the assay with SNB-19, in the assay on 786-0 and with M14 was > 100 µM (inactive) each time.

For the compound `COc1ccc(/N=[N+](\[O-])c2ccc(OC)cc2)cc1`, the GI50 was 79.8 µM (inactive) in the assay on NCI-H522; > 100 µM (inactive) in the assay with SF-295; > 100 µM (inactive) with HT-29; > 100 µM (inactive) in the assay with HCT-116; > 100 µM (inactive) with SK-OV-3; > 100 µM (inactive) with OVCAR-3. Moreover, the GI50 with KM12, in the assay on UACC-257, in the assay on UO-31, in the assay with HCC 2998, in the assay with SNB-75 and in the assay on U-251 was > 100 µM (inactive) each time. Moreover, the GI50 with RPMI-8226, in the assay with SNB-19, in the assay with 786-0, in the assay with M14 and in the assay on RXF 393 was > 100 µM (inactive) each time.

On to `CCOC(=O)C1(C/C=C/CBr)Cc2ccccc2C1=O` (centres undefined), for which the GI50 is 1.63 µM (inactive) in the assay on NCI-H522; 8.57 µM (inactive) with SF-295; 2.79 µM (inactive) in the assay with HT-29; 3.71 µM (inactive) in the assay with HCT-116; 8.69 µM (inactive) in the assay with SK-OV-3; 2.17 µM (inactive) in the assay with OVCAR-3. The GI50 with KM12 was 3.07 µM (inactive); in the assay on CCRF-CEM it was 0.796 µM (active); in the assay on UACC-257, 8.17 µM (inactive); in the assay on UO-31 it was 1.96 µM (inactive); in the assay with HCC 2998 it was 9.02 µM (inactive); with SNB-75, 5.86 µM (inactive). In addition, the GI50 in the assay with U-251 is 3.58 µM (inactive); in the assay with RPMI-8226 it was 2.02 µM (inactive); with SF-539, 1.81 µM (inactive); in the assay on SNB-19, 5.45 µM (inactive); with 786-0 it was 3.85 µM (inactive); with M14, 2.83 µM (inactive). The GI50 in the assay with RXF 393 is 1.55 µM (inactive).

`COC(=O)C1C2CCCN2OC1(C)CO` (centres undefined): the GI50 with NCI-H522, in the assay with SF-295, in the assay with HT-29, in the assay with NCI-H226, with HCT-116 and in the assay on SK-OV-3 was > 100 µM (inactive) in each case. Also, the GI50 with OVCAR-3, in the assay on KM12, in the assay with CCRF-CEM, in the assay with UACC-257, in the assay on UO-31 and in the assay on SNB-75 was > 100 µM (inactive) throughout. Further, the GI50 in the assay with U-251, with RPMI-8226, with SF-539, with SNB-19, in the assay on 786-0 and with M14 was > 100 µM (inactive) throughout.

Turning to `CC1C2CC(CC2N)C1(C)C` (centres undefined), the GI50 in the assay on NCI-H522, in the assay on SF-295, in the assay on HT-29, in the assay on NCI-H226, in the assay with HCT-116 and with SK-OV-3 was > 100 µM (inactive) throughout. Also, the GI50 in the assay on OVCAR-3, in the assay with KM12, in the assay on CCRF-CEM, in the assay on UACC-257, in the assay with UO-31 and in the assay with HCC 2998 was > 100 µM (inactive) in each case. For the same compound, the GI50 in the assay with SNB-75, with U-251, in the assay with SF-539, in the assay on SNB-19, in the assay with 786-0 and in the assay on M14 was > 100 µM (inactive) throughout.

`O=C1Nc2cccc(Cl)c2/C1=C\c1cccnc1`: the GI50 with NCI-H522 is 9.66 µM (inactive); in the assay on SF-295 it was 16.7 µM (inactive); in the assay with HT-29, 5.92 µM (inactive); with HCT-116 it was 3.16 µM (inactive); in the assay on SK-OV-3 it was 4.12 µM (inactive); in the assay with OVCAR-3, 5.64 µM (inactive). Besides, the GI50 with KM12 was 5.96 µM (inactive); in the assay with CCRF-CEM, 4.58 µM (inactive); in the assay on UACC-257 it was 5.06 µM (inactive); with UO-31, 5.16 µM (inactive); in the assay with HCC 2998, 2.15 µM (inactive); in the assay on SNB-75, 15.5 µM (inactive). Further, the GI50 in the assay on U-251 was 6.47 µM (inactive); in the assay with SF-539, 12.4 µM (inactive); in the assay with SNB-19, 3.7 µM (inactive); in the assay on 786-0 it was 7.43 µM (inactive); in the assay with M14, 6.61 µM (inactive); in the assay on RXF 393 it was 2.83 µM (inactive).

Turning to `NC1=NS(=O)(=O)Nc2nc(-c3ccc(Cl)cc3)c(-c3ccc(Cl)cc3)nc21`, the GI50 is 48 µM (inactive) in the assay with NCI-H522; > 100 µM (inactive) in the assay on SF-295; > 100 µM (inactive) with HT-29; > 100 µM (inactive) with HCT-116; > 100 µM (inactive) in the assay on OVCAR-3; > 100 µM (inactive) with KM12. The GI50 with CCRF-CEM was 82.4 µM (inactive); with UACC-257 it was > 100 µM (inactive); in the assay on UO-31, > 100 µM (inactive); in the assay on HCC 2998, > 100 µM (inactive); with SNB-75, > 100 µM (inactive); with U-251, 65.8 µM (inactive). For the same compound, the GI50 in the assay with SF-539, with SNB-19, in the assay with 786-0, in the assay on M14 and in the assay with RXF 393 was > 100 µM (inactive) each time.

As for `O=C(O)Cc1ccc2nc(COC(=O)c3ccccc3)sc2c1`, the GI50 with NCI-H522 is > 100 µM (inactive); with SF-295, > 100 µM (inactive); in the assay with HCT-116, 83.8 µM (inactive); with SK-OV-3, > 100 µM (inactive); in the assay with OVCAR-3 it was > 100 µM (inactive); in the assay on KM12 it was > 100 µM (inactive). Further, the GI50 in the assay with CCRF-CEM is < 0.01 µM (active); in the assay with UACC-257, > 100 µM (inactive); in the assay on UO-31, > 100 µM (inactive); in the assay on HCC 2998, > 100 µM (inactive); in the assay on SNB-75 it was > 100 µM (inactive); in the assay on U-251, > 100 µM (inactive). Besides, the GI50 in the assay on RPMI-8226, in the assay with SNB-19, in the assay with 786-0, with M14 and in the assay on RXF 393 was > 100 µM (inactive) in each case.
